# Reference: patent US20240024273A1, “TOPICAL ADMINISTRATION OF 2-(DIETHYLAMINO)ETHYL 2-(4-ISOBUTYLPHENYL)PROPRIONATE FOR TREATMENT OF DISEASES” (TECHFIELDS PHARMA CO., LTD., priority 2020, published 2024)
# Values joined by “and” are separate entries in the source; they are usually repeats but may differ in a detail not shown here. Identical values can stand only once.
# How the values were obtained:
# [1] = test system: osteoarthritis of the knee; test: Second Phase 2 study: WOMAC stiffness subscale score; type: in vivo, human
# From the text: For subjects with bilateral knee pain, both knees will be treated, but the most symptomatic knee (ie, the most painful knee as measured by the Western Ontario and McMaster University Osteoarthritis Index [WOMAC® 3.1] pain subscale score at Screening) will be designated as the target knee for efficacy analyses. For subjects with unilateral knee pain, only the symptomatic (target) knee will be treated.
# The VAS version of the WOMAC will be used for the Primary and Secondary Efficacy Endpoints. Efficacy endpoints will be assessed at Screening and Baseline (Day 1) and at the Week 2, Week 4, Week 8, and Week 12/EOS visits.
# 4.9.2. Secondary Efficacy Endpoints: • 1. Change from Baseline in the WOMAC (VAS) pain subscale score for the target knee at 2, 8, and 12 weeks of treatment; • 2. Change from Baseline in the WOMAC (VAS) stiffness subscale scores for the target knee and WOMAC (VAS) functional ability subscale scores at 2, 4, 8, and 12 weeks of treatment; • 3. Change from Baseline in the overall WOMAC (VAS) score at 2, 4, 8, and 12 weeks of treatment; • 4. Subject's global assessment of disease status of the target knee at 2, 4, 8, and 12 weeks of treatment; • 5. Subject's global assessment of response to therapy of the target knee at 2, 4, 8, and 12 weeks of treatment; • 6. Amount of rescue medication (acetaminophen) consumed per day for target knee pain.
# The Secondary Efficacy Endpoints, change from Baseline in the WOMAC subscale scores for pain, stiffness, and functional ability, and overall WOMAC score at 2, 4, 8, and 12 weeks of treatment, will be analyzed using the same methods as for the Primary Efficacy Endpoint.
# [2] = test system: osteoarthritis of the knee; test: Second Phase 2 study: Subject's pain Assessment Scores (SPA); type: in vivo, human; details: for Subject's pain Assessment Scores, % of improvement from Oral Ibuprofen / Subject's pain Assessment Scores, % of improvement from Placebo / Subject's pain Assessment Scores, % of improvement from baseline / Subject's pain Assessment Scores, Changes from Baseline (LS Mean) / Subject's pain Assessment Scores, Week 12 (LS Mean) / Subject's pain Assessment Scores, Different from oral ibuprofen (LS Mean) / Subject's pain Assessment Scores, Different from placebo (LS Mean): all subjects
# Description: Subjects will record the following information in a Daily Diary starting at Screening: the amount of knee pain in the target knee while walking during the preceding 24 hours (using a 100 mm visual analog scale [VAS]), the times and number of sprays for each administration of study medication, the times when the subject washes his/her knees and/or takes a shower, the number of tablets of rescue medication taken that day and the times taken, the reason for taking the rescue medication (e.g., knee pain, headache, low back pain), any other concomitant medications taken that day, and any AEs occurring that day.
# [3] = all subjects, 17.5 mg/knee BID, n = 52, Week 12
# [4] = 17.5 mg/knee BID, Week 12, first 130 subjects
# [5] = Week 12, 4.375 mg/knee BID (n = 23), first 130 subjects
# [6] = Week 12, 8.75 mg/knee BID (n = 24), first 130 subjects
# [7] = Week 12, 17.5 mg/knee BID (n = 19), first 130 subjects
# [8] = 4.375 mg/knee BID, n = 49, Week 12
# [9] = 8.75 mg/knee BID, n = 54, Week 12
# [10] = 17.5 mg/knee BID, n = 52, Week 12
structure (smiles),measurement,setting,value
CCN(CC)CCOC(=O)C(C)c1ccc(CC(C)C)cc1 (stereo not drawn) [2-(diethylamino)ethyl 2-(4-isobutylphenyl)propionate],"WOMAC Stiffness Subscale Scores, Different from placebo (LS Mean)",[1]; [3],−8.6 mm
same,"WOMAC Stiffness Subscale Scores, Week 12 (LS Mean)",[1]; [3],28.1 mm
same,"WOMAC Joint Stiffness Subscale Score, Week 4","[1]; individual patient (blinded), Low Dose (2 spray/knee, 8.75 mg/knee) Cohort, Week 4",59.5 and 62
same,"SPA, difference from oral ibuprofen",[2]; [4],−14.1 mm
same,"SPA, difference from placebo",[2]; [4],−21.0 mm
same,"Subject’s pain Assessment Scores, Baseline (LS Mean)","[2]; 4.375 mg/knee BID (n = 23), first 130 subjects",59.7 mm
same,"Subject’s pain Assessment Scores, Baseline (LS Mean)","[2]; 8.75 mg/knee BID (n = 24), first 130 subjects",63.5 mm
same,"Subject’s pain Assessment Scores, Baseline (LS Mean)","[2]; 17.5 mg/knee BID (n = 19), first 130 subjects",68.6 mm
same,"Subject’s pain Assessment Scores, % of improvement from Oral Ibuprofen",[2]; [5],−2.3%
same,"Subject’s pain Assessment Scores, % of improvement from baseline",[2]; [5],−38.5%
same,"Subject’s pain Assessment Scores, % of improvement from placebo",[2]; [5],−9.3%
same,"Subject’s pain Assessment Scores, Changes from Baseline (LS Mean)",[2]; [5],−23.0 mm
same,"Subject’s pain Assessment Scores, Different from oral ibuprofen (LS Mean)",[2]; [5],2.8 mm
same,"Subject’s pain Assessment Scores, Different from placebo (LS Mean)",[2]; [5],−4.0 mm
same,"Subject’s pain Assessment Scores, Week 12 (LS Mean)",[2]; [5],36.7 mm
same,"Subject’s pain Assessment Scores, % of improvement from Oral Ibuprofen",[2]; [6],−10.4%
same,"Subject’s pain Assessment Scores, % of improvement from baseline",[2]; [6],−47.7%
same,"Subject’s pain Assessment Scores, % of improvement from placebo",[2]; [6],−18.5%
same,"Subject’s pain Assessment Scores, Changes from Baseline (LS Mean)",[2]; [6],−30.3 mm
same,"Subject’s pain Assessment Scores, Different from oral ibuprofen (LS Mean)",[2]; [6],−3.8 mm
same,"Subject’s pain Assessment Scores, Different from placebo (LS Mean)",[2]; [6],−11.4 mm
same,"Subject’s pain Assessment Scores, Week 12 (LS Mean)",[2]; [6],33.2 mm
same,"Subject’s pain Assessment Scores, % of improvement from Oral Ibuprofen",[2]; [7],−22.0%
same,"Subject’s pain Assessment Scores, % of improvement from baseline",[2]; [7],−58.2%
same,"Subject’s pain Assessment Scores, % of improvement from placebo",[2]; [7],−29.0%
same,"Subject’s pain Assessment Scores, Changes from Baseline (LS Mean)",[2]; [7],−39.9 mm
same,"Subject’s pain Assessment Scores, Different from oral ibuprofen (LS Mean)",[2]; [7],−14.1 mm
same,"Subject’s pain Assessment Scores, Different from placebo (LS Mean)",[2]; [7],−21.0 mm
same,"Subject’s pain Assessment Scores, Week 12 (LS Mean)",[2]; [7],28.7 mm
same,"Subject's pain Assessment Scores, % of improvement from Oral Ibuprofen",[2]; [8],4.9%
same,"Subject's pain Assessment Scores, % of improvement from Placebo",[2]; [8],−3.5%
same,"Subject's pain Assessment Scores, % of improvement from baseline",[2]; [8],−40.5%
same,"Subject's pain Assessment Scores, Changes from Baseline (LS Mean)",[2]; [8],−25.6 mm
same,"Subject's pain Assessment Scores, Week 12 (LS Mean)",[2]; [8],37.5 mm
same,"Subject's pain Assessment Scores, % of improvement from Oral Ibuprofen",[2]; [9],−3.0%
same,"Subject's pain Assessment Scores, % of improvement from Placebo",[2]; [9],−11.4%
same,"Subject's pain Assessment Scores, % of improvement from baseline",[2]; [9],−48.4%
same,"Subject's pain Assessment Scores, Changes from Baseline (LS Mean)",[2]; [9],−31.4 mm
same,"Subject's pain Assessment Scores, Different from oral ibuprofen (LS Mean)",[2]; [9],−0.8 mm
same,"Subject's pain Assessment Scores, Different from placebo (LS Mean)",[2]; [9],−7.2 mm
same,"Subject's pain Assessment Scores, Week 12 (LS Mean)",[2]; [9],33.5 mm
same,"Subject's pain Assessment Scores, % of improvement from Oral Ibuprofen",[2]; [10],−8.2%
same,"Subject's pain Assessment Scores, % of improvement from Placebo",[2]; [10],−16.6%
same,"Subject's pain Assessment Scores, % of improvement from baseline",[2]; [10],−53.6%
same,"Subject's pain Assessment Scores, Changes from Baseline (LS Mean)",[2]; [10],−34.6 mm
same,"Subject's pain Assessment Scores, Different from oral ibuprofen (LS Mean)",[2]; [10],−4.1 mm
same,"Subject's pain Assessment Scores, Different from placebo (LS Mean)",[2]; [10],−10.5 mm
same,"Subject's pain Assessment Scores, Week 12 (LS Mean)",[2]; [10],30.0 mm
